Results as given in ChEMBL document CHEMBL1201862, “PubChem BioAssay data set” (2004).
One block for each compound: values may come before it. Activity calls are given as the source filed them.

Key:
[1] = biological target: T1, Cytochrome P450 2D6 (Homo sapiens, UniProt P10635)
[2] = biological target: Tumor necrosis factor (Homo sapiens, UniProt P01375); assay: TNFa-triggered NF-kB activation inhibitors, SAR follow-up, cell-based, revised (AID 2337); assay type: functional
[3] = test system: HEK293; assay: cells; details: Homo sapiens
[4] = biological target: Nucleotide-binding oligomerization domain-containing protein 1 (Homo sapiens, UniProt Q9Y239); assay: NOD1 signaling inhibitors, SAR follow-up, revised (AID 2333); assay type: functional
[5] = biological target: Cytochrome P450 3A4 (Homo sapiens, UniProt P08684);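 also: CYP3A4 tested as one member of a cytochrome P450 panel screen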
[6] = biological target: Cytochrome P450 2C19 (Homo sapiens, UniProt P33261); assay: Cytochrome panel assay with activity outcomes. Panel member name: p450-cyp2c19 Compounds with AC50 equal or less than 10 uM are considered active; assay type: functional; details: read-out: AC50
[7] = biological target: T1, Cytochrome P450 2D6; remark: listed apart in the source
[8] = biological target: T2, Sphingosine 1-phosphate receptor 4 (Homo sapiens, UniProt O95977); assay: Late-stage fluorescence dose response cell-based assay to identify agonists of the Sphingosine 1-Phosphate Receptor 4 (S1P4): purchased compounds EC50. [Related pubchem assays (depositor defined):AID1509, AID1523, AID1563, AID1686, AID1701, AID1801]; assay type: functional
T2 sequence (O95977 whole entry): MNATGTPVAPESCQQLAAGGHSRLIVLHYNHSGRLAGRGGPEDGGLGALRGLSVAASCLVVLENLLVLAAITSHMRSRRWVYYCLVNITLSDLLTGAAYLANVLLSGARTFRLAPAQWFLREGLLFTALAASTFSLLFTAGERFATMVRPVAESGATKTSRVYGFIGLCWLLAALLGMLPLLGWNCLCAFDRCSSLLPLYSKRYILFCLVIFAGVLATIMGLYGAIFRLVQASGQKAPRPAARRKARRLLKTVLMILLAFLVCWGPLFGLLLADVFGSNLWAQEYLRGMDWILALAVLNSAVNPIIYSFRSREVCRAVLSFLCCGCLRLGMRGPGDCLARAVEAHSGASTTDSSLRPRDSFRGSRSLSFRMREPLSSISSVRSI

[9] = biological target: T3, Cytochrome P450 1A2 (Homo sapiens, UniProt P05177);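 also: PubChem cytochrome P450 panel assay, CYP1A2 panel member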
T3 sequence (P05177 whole entry): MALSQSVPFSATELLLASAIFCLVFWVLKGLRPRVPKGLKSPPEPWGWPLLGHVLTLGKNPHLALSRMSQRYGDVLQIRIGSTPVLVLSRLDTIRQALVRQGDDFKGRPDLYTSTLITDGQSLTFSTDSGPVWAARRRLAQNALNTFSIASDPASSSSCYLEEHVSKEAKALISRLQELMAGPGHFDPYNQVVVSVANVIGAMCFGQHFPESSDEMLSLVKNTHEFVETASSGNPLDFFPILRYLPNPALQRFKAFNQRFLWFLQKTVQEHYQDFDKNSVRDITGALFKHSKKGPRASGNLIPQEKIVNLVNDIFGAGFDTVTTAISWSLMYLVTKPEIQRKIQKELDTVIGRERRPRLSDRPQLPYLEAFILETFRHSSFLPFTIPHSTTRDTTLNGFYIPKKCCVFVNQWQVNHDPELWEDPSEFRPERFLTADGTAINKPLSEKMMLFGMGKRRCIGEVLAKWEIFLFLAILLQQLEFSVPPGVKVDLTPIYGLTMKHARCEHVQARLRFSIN

[10] = test system: HEK293; assay: cells; assay type: functional, cell-based; details: Homo sapiens
[11] = biological target: T4, Microphthalmia-associated transcription factor (Homo sapiens, UniProt O75030); assay: TRPM1 promoter luciferase signal decrease, dose response, MITF inhibitor project, cell-based, SK-MEL-5, cherry-picked, set 3 (AID 493073); assay type: functional
T4 sequence (O75030 whole entry): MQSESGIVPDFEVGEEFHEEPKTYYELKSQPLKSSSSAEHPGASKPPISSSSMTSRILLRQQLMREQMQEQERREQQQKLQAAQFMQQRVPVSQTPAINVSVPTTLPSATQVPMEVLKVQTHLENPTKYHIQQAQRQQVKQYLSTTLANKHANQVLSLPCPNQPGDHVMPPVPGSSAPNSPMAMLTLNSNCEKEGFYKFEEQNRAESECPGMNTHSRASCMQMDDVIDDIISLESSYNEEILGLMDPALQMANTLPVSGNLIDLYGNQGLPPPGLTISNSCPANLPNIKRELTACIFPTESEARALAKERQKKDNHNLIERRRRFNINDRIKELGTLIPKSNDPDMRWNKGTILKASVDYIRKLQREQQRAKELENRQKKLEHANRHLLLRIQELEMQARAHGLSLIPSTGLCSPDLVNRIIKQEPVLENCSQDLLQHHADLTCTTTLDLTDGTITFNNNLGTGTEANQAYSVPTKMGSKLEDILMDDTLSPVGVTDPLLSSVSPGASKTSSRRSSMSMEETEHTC

[12] = test system: HEK293; assay: NOD1 signaling inhibitors, primary screen, cell-based, luminescence, uHTS (AID 1578); assay type: functional; details: Homo sapiens
[13] = test system: HEK293; assay: cells; assay type: functional, cell-based; details: Homo sapiens; remark: listed apart in the source
[14] = test system: HEK293; assay: NOD2 signaling inhibitors in MDP-stimulated cells, cell-based, uHTS, luminescence (AID 2001); assay type: functional; details: Homo sapiens
[15] = biological target: Glyceraldehyde-3-phosphate dehydrogenase (Homo sapiens, UniProt P04406)
[16] = biological target: T5, Alkaline phosphatase, tissue-nonspecific isozyme (Homo sapiens, UniProt P05186); assay: human TNAP enzyme inhibitors, SAR follow-up, biochemical, luminescent, dose response (AID 1056)
T5 sequence (P05186 whole entry): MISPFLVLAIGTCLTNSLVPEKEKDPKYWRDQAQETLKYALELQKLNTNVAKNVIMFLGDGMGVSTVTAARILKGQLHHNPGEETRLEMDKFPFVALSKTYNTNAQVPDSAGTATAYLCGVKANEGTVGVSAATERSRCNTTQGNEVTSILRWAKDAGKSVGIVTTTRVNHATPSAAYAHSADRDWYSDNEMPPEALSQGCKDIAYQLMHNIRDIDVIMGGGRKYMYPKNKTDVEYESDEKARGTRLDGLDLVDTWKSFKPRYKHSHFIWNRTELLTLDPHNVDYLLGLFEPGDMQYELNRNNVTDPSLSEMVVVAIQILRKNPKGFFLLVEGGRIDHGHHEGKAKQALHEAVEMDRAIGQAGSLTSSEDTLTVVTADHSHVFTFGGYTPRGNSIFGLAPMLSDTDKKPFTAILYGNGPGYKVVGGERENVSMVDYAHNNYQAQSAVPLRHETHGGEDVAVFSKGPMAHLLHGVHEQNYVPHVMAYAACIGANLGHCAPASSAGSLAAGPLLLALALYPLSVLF

[17] = biological target: T6, Polyadenylate-binding protein 1 (Homo sapiens, UniProt P11940); assay: PABP1 MLLE–PAM2 interaction inhibitors, dose response, miRNA deadenylation inhibitor project, biochemical, fluorescence polarization, Cy5-PAM2 peptide, secondary (AID 602260); assay type: functional; details: read-out: IC50_Mean
[18] = biological target: T6, Polyadenylate-binding protein 1; assay: PABP1 MLLE–PAM2 binding inhibitor potency, dose response, biochemical, fluorescence polarization, FITC-PAM2 peptide (AID 602259); assay type: functional; details: read-out: IC50_Mean
[19] = biological target: T7, High affinity choline transporter 1 (Homo sapiens, UniProt Q9GZV3); assay: CHT inhibitors, dose response, cell-based, 5-point CRC, membrane potential dye (AID 504840); assay type: functional
T7 sequence (Q9GZV3 whole entry): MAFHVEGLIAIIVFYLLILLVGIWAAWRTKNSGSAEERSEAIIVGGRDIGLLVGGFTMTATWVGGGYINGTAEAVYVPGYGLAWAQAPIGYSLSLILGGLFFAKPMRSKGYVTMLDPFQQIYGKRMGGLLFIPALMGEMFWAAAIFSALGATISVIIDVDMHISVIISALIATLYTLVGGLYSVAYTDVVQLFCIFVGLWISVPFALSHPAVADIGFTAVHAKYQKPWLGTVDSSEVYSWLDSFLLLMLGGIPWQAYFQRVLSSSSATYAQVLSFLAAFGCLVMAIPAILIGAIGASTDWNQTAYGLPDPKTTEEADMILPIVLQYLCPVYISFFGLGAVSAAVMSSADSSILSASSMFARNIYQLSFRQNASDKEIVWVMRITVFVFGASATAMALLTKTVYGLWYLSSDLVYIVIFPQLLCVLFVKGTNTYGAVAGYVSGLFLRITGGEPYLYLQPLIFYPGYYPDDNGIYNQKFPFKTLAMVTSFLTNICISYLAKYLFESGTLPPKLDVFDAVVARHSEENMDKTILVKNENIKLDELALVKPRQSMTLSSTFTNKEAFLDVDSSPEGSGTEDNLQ

[20] = biological target: Disintegrin and metalloproteinase domain-containing protein 17 (Homo sapiens, UniProt P78536); assay: exosite inhibitors of ADAM17, dose response, biochemical (AID 743260)
[21] = biological target: T8, Calpain-2 catalytic subunit (Sus scrofa, UniProt P43367); assay: pig calpain II inhibitor potency, dose response, biochemical, fluorogenic peptide substrate (AID 1420); assay type: functional
T8 sequence (P43367 whole entry): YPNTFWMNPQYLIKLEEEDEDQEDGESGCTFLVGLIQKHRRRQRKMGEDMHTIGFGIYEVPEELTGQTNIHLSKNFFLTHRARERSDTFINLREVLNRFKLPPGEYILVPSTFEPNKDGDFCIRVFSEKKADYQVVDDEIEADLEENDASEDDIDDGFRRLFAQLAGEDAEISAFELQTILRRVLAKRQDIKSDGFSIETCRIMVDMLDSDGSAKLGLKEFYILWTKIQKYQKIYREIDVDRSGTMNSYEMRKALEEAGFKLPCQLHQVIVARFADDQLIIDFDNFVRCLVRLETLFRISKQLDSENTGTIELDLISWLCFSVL

[22] = biological target: Sphingosine 1-phosphate receptor 1 (Homo sapiens, UniProt P21453); assay: Fluorescence-based counterscreen assay for S1P4 agonists: Cell-based dose response high throughput screening assay to identify agonists of the Sphingosine 1-Phosphate Receptor 1 (S1P1). [Related pubchem assays (depositor defined):AID1509, AID1523, AID1801, AID463107, AID463118, AID463119, AID463122, AID463123, AID463129, AID463225, AID504400, AID504460]; assay type: functional
[23] = biological target: T2, Sphingosine 1-phosphate receptor 4; assay: Fluorescence dose response cell-based high throughput screening assay for agonists of the Sphingosine 1-Phosphate Receptor 4 (S1P4). [Related pubchem assays: 1509 (Primary screen.), 1523 (Confirmation screen in triplicates.)]; assay type: functional

Sequence of Cytochrome P450 3A4 (P08684 whole entry): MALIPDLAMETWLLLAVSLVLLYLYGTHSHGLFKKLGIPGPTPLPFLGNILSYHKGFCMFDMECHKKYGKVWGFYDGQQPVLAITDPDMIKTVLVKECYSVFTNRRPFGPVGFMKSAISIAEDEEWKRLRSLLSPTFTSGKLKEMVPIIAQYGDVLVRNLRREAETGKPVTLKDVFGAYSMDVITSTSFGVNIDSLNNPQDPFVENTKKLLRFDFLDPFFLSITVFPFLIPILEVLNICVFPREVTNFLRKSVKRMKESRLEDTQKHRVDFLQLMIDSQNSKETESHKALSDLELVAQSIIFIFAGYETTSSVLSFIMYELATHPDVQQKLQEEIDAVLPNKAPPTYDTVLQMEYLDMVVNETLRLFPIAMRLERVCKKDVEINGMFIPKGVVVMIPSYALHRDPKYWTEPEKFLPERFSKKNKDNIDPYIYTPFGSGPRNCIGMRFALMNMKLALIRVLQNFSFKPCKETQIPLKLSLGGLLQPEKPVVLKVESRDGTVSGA
Sequence of Tumor necrosis factor (P01375 whole entry): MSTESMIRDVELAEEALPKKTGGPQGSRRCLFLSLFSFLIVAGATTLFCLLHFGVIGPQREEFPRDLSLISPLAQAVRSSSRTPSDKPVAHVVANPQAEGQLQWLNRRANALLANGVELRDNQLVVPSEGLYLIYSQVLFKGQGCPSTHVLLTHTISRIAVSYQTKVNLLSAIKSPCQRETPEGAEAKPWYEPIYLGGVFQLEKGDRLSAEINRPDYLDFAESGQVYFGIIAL
T1 sequence (P10635 whole entry): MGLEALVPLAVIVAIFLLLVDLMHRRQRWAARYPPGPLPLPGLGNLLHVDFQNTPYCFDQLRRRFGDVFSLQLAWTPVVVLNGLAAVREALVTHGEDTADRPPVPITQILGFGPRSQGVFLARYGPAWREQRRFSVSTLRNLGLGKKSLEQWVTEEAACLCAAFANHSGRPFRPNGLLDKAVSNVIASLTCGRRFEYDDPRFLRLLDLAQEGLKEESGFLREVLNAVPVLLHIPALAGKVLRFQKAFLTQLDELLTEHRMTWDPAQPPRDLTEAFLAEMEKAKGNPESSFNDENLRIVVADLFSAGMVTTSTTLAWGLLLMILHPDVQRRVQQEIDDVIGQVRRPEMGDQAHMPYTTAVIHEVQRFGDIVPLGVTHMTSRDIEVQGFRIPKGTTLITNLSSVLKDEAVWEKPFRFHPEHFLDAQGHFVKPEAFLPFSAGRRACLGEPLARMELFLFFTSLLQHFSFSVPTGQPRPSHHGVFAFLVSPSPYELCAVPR
T6 sequence (P11940 whole entry): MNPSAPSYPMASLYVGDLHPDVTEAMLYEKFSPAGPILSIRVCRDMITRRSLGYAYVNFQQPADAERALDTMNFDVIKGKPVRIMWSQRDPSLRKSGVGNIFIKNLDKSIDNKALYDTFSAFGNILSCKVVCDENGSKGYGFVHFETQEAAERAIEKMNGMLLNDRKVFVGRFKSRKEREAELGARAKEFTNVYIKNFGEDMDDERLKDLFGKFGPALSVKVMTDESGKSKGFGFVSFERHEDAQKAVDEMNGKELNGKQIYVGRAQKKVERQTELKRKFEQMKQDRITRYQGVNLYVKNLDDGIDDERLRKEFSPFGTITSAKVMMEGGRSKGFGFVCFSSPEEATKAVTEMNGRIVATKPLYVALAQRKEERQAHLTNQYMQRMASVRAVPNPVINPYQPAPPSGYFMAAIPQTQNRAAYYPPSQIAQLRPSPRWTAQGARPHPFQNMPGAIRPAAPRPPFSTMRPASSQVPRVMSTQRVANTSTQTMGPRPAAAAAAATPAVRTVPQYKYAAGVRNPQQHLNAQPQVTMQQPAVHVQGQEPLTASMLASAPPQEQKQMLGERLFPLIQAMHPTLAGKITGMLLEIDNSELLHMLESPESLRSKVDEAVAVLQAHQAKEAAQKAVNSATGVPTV
Sequence of Nucleotide-binding oligomerization domain-containing protein 1 (Q9Y239 whole entry, the tested form may be a part): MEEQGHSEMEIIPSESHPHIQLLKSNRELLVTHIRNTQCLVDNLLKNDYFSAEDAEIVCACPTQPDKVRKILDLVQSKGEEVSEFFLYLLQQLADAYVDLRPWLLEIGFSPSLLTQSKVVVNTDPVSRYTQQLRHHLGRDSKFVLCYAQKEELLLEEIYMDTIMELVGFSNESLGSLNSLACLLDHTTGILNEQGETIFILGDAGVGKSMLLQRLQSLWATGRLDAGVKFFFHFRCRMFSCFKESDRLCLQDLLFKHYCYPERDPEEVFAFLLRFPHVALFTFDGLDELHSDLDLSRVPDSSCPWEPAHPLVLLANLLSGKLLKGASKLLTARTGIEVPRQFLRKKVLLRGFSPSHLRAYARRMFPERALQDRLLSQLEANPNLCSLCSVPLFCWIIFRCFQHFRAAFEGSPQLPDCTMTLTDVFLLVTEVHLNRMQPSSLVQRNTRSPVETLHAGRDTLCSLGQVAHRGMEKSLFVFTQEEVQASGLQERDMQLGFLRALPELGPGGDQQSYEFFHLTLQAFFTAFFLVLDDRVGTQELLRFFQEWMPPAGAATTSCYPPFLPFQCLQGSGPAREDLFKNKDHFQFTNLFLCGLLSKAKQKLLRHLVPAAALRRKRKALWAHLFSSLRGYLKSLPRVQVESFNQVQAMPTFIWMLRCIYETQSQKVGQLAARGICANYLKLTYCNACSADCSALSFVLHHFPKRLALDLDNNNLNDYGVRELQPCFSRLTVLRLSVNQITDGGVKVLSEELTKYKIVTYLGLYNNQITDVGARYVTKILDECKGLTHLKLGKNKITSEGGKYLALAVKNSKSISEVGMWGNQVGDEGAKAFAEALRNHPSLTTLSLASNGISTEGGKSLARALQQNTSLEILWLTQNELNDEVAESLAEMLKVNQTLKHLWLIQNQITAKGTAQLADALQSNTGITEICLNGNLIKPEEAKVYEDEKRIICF
Sequence of Sphingosine 1-phosphate receptor 1 (P21453 whole entry): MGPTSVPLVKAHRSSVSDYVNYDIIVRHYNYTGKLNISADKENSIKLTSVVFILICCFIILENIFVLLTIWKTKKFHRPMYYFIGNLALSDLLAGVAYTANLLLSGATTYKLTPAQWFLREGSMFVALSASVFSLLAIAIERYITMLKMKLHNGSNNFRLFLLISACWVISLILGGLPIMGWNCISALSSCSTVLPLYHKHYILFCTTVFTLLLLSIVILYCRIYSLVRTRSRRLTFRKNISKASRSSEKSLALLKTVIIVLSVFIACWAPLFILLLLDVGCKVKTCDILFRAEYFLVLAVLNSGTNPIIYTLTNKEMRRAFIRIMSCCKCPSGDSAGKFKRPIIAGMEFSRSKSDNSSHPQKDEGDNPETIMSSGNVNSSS
Sequence of Disintegrin and metalloproteinase domain-containing protein 17 (P78536 whole entry, the tested form may be a part): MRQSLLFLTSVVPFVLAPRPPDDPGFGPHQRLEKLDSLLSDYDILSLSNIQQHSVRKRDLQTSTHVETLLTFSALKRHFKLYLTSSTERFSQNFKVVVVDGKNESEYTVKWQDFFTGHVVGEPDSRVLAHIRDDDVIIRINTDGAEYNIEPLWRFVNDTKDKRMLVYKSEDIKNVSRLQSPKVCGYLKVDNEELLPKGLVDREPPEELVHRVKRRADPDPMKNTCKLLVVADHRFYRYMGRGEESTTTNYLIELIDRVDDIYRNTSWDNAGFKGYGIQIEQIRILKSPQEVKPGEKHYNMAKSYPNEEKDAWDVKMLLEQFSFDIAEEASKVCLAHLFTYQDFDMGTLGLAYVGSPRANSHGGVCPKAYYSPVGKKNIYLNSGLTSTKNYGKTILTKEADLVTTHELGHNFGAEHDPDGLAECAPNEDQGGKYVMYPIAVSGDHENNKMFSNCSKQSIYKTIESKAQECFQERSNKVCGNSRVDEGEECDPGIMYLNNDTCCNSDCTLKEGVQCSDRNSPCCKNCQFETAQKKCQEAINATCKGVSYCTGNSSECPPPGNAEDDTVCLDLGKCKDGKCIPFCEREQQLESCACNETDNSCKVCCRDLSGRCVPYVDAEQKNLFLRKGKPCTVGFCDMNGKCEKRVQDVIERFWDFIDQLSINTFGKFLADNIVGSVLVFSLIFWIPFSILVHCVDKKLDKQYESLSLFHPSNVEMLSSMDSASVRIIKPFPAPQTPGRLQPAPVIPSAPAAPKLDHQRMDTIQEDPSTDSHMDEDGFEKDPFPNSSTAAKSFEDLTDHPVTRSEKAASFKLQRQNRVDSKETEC
Sequence of Cytochrome P450 2C19 (P33261 whole entry): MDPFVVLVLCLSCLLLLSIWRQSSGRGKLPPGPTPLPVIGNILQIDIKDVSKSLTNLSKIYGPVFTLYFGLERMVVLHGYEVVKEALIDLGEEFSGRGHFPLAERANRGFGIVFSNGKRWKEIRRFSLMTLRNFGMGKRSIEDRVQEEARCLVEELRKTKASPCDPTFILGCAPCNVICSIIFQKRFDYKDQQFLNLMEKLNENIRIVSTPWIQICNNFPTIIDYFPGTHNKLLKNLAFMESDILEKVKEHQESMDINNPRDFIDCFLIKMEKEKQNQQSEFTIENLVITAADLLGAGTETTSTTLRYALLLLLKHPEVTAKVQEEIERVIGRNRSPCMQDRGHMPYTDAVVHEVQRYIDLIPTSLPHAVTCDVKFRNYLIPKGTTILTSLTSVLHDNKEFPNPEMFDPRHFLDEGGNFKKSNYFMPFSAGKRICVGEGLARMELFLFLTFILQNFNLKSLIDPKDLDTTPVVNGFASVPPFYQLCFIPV
Sequence of Glyceraldehyde-3-phosphate dehydrogenase (P04406 whole entry): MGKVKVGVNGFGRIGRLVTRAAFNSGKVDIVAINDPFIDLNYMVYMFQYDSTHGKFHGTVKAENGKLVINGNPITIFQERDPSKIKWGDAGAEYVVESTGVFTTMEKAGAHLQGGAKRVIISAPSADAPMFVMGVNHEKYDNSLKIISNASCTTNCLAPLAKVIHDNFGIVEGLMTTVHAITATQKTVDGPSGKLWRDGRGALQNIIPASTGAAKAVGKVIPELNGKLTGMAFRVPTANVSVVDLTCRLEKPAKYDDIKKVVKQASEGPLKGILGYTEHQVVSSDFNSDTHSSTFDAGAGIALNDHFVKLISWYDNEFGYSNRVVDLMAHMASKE

SMILES: O=C(Nc1ccc(S(=O)(=O)O)cc1)c1ccc(CN2CCc3ccccc3C2)cc1
IC50 [2]: > 20 µM (inactive)
IC50 [3]: > 20 µM (inactive)
IC50 [4]: > 20 µM (inactive)

SMILES: O=C(c1ccc(S(=O)(=O)Cc2ccccc2Cl)c([N+](=O)[O-])c1)N1CCN(c2ccccn2)CC1
IC50 [10]: 2.81 µM (active)
IC50 [2]: 4.53 µM (active)
AC50 [11]: 9.49 µM (active)
EC50 [12]: 11.8 µM (active)
IC50 [3]: 16.3 µM (active)
IC50 [13]: > 20 µM (inactive)
IC50 [14]: 3.63 µM (active)
IC50 [4]: 4.24 µM (active)

SMILES: S=c1[nH]nc(-c2sccc2OCc2ccc(Cl)cc2Cl)[nH]1
IC50 [17]: > 66 µM (inactive)
IC50 [18]: > 66 µM (inactive)
IC50 [19]: 11.5 µM (active)
IC50 [20]: > 69.5 µM (inactive)
IC50 [21]: 10.1 µM (not active)

SMILES: Cc1cc(-n2c(=O)c(C#N)cc3c(=O)n4ccccc4nc32)no1
EC50 [22]: 10.1 µM (inactive)
EC50 [23]: 4.43 µM (active)

Further lines, results first:

AC50 [1]: inactive
SMILES: CCc1c(C)[nH]c2c1C(=O)[C@H](CN1CCOCC1)CC2.Cl [MOLINDONE HYDROCHLORIDE]

AC50 [5]: inconclusive
AC50 [6]: 10 µM (inconclusive)
AC50 [7]: 10 µM (inconclusive)
SMILES: COC(=O)N1CCC2(CC1)CCN(c1ccccn1)CC2

EC50 [8]: > 50 µM (inactive)
SMILES: Cc1ccc(OC(C)C(=O)Nc2ccc(Cl)cc2Cl)c([N+](=O)[O-])n1 (configuration not stated)

AC50 [5]: inconclusive
AC50 [9]: 12.6 µM (inconclusive)
SMILES: O=C(Oc1ccccc1)N1CCC2(CC1)CCN(c1cccc(-c3ccccc3)c1)CC2

IC50 [15]: > 100 µM (not active)
IC50 [16]: 69.6 µM (active)
SMILES: O=S(=O)(Nc1cnc2ccccc2c1)c1cc(Cl)cc(Cl)c1O
